This note sets out measurements from ChEMBL document CHEMBL1201862, “PubChem BioAssay data set” (2004).

Calls of active or inactive are those of the source.

A short description of assay [1]: luciferase reporter signal suppression in cells – H4 neuroglioma cells, luminescence, dose response (AID 1990). It is filed as functional, cell-based. (In a reporter assay the amount or activity of a reporter protein is the signal.)
Assay [2] can be described thus: luciferase reporter signal reduction – luminescence, H4-C neuroglioblastoma cells, dose response (AID 2458).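 Further: H4 neuroglioblastoma cells stably carrying a luciferase reporter gene fusion.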 It is filed as functional, cell-based.
The test system of assay [3] is BJ. Kind of assay: BJ-TERT fibroblast viability loss – cell-based, RAS-independent, luminescence, dose response (AID 1933). It is filed as functional, Homo sapiens. Particulars: Homo sapiens, BJ.
Assay [4] is described as follows: cells. It is filed as functional, cell-based.
A short description of assay [5]: Luminescence Cell-Based Dose Response HTS to Identify Inhibitors of 5'UTR Stem-Loop Driven Prion Protein mRNA Translation in H4 Neuroglioblastoma Cells. [Related pubchem assays: 1827 (Project Summary), 1813 (Primary HTS)]. It is filed as functional.
The nature of assay [6]: alpha-synuclein stem-loop luciferase translation blockers – H4 neuroglioma cells, luminescence, confirmation (AID 1988). It is filed as functional, cell-based.
The test system of assay [7] is BJ. Description: cells. It is filed as functional, cell-based, Homo sapiens. Particulars: Homo sapiens, BJ.
Assay [8] in a line: DRD fibroblast viability loss – cell-based, non-viral oncogenic, luminescence, dose response (AID 1934). It is filed as functional. The following applies: Homo sapiens.
Assay [9] is described as follows: alpha-synuclein stem-loop translation blockers – luminescence, H4 neuroglioblastoma cells, dose confirmation, confirmation (AID 2454).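 Further: H4 neuroglioblastoma cells carrying an alpha-synuclein 5'UTR luciferase reporter; potency for inhibition of the luciferase signal.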 It is filed as functional, cell-based.
Assay [10] in a line: HEK-293T viability loss after treatment – luminescence, T-cell screen hits, cytotoxicity control for TCR NF-kB inhibitor project, dose response (AID 489026).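 Further: cells exposed to compound about 14 hours before the viability readout.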 It is filed as functional, cell-based.
Assay [11] has as its target T1, Microphthalmia-associated transcription factor (Homo sapiens, UniProt O75030).
T1 sequence (O75030 whole entry): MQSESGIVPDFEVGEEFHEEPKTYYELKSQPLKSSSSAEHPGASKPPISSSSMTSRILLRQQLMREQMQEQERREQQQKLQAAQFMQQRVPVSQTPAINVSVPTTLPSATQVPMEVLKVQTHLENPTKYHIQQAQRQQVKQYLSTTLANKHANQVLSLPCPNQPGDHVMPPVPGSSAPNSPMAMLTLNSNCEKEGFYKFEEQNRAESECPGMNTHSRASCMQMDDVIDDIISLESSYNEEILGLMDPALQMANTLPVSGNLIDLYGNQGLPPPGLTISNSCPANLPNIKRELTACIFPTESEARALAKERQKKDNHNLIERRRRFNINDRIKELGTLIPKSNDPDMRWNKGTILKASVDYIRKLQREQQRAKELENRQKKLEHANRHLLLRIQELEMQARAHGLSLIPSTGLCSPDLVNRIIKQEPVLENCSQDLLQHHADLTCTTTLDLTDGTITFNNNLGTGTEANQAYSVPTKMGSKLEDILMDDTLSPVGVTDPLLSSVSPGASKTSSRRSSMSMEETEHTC
Kind of assay: reducers of TRPM1 reporter luminescence, concentration series – cell-based, SK-MEL-5, cherry-picked, set 3, MITF inhibitor project, dose response (AID 493073).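 Further: SK-MEL-5 melanoma cells with luciferase driven by the MITF target TRPM1 promoter.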 It is filed as functional.

Assay [12] concerns A-375. Kind of assay: MITF: Counter assay: A375 proliferation Measured in Cell-Based System Using Plate Reader - 2084-03_Inhibitor_Dose_DryPowder_Activity. [Related pubchem assays (depositor defined):AID488944]. It is filed as functional. Particulars: Homo sapiens.
Assay [13] concerns A-375. Description: proliferation inhibition in MITF-low A375 cells – cell-based, cherry-pick samples, set 2, counter-screen for MITF modulator project, dose response (AID 540335). It is filed as functional. Particulars: Homo sapiens. In general terms: A counterscreen serves to expose hits that act by an unwanted route or on another target.
Assay [14] can be described thus: cells. It is filed as functional, cell-based. This is another data set of the same source.
For assay [15], the target named is Nuclear receptor subfamily 0 group B member 1 (Homo sapiens, UniProt P51843). It is filed as functional, cell-based.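 Further: HEK293T cells transfected with SF-1 and DAX-1 plus StAR promoter luciferase reporter.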
Chain of Nuclear receptor subfamily 0 group B member 1 (P51843 whole entry): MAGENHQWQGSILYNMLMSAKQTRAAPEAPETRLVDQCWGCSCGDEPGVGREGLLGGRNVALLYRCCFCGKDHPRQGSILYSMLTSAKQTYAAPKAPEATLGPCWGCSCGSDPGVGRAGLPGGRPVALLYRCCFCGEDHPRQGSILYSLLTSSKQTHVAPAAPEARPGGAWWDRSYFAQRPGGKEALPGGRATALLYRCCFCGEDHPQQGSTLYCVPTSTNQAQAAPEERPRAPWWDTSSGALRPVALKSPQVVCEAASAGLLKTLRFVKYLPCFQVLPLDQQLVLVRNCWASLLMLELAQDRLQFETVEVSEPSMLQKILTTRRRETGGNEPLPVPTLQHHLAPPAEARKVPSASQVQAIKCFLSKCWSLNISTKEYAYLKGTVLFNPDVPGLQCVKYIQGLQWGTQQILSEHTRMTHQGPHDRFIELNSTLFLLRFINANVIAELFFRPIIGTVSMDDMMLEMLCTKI
In a further assay the target is Paired box protein Pax-8 (Homo sapiens, UniProt Q06710). Kind of assay: PAX8 transcriptional activity inhibition in RMG-I – RMG-I cells, luciferase, cherry-pick, dose response (AID 687027).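 Further: luciferase reporter driven by Pax8 target thyroperoxidase promoter measured by SteadyGlo luminescence.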 It is filed as functional, cell-based.
Chain of Paired box protein Pax-8 (Q06710 whole entry): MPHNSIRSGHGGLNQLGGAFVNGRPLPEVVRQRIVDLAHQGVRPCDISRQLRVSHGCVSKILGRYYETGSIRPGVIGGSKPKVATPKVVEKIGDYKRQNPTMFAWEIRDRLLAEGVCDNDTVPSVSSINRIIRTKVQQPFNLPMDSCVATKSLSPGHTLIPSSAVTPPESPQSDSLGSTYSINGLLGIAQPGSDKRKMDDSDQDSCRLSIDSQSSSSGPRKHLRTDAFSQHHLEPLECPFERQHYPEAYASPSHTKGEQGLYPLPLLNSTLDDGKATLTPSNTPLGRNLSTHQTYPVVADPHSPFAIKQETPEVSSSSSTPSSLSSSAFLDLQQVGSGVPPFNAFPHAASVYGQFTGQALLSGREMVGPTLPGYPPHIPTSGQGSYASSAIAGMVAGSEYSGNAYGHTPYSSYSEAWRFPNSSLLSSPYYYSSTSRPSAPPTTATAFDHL
Assay [16] is described as follows: inhibitors acting on PAX2 in cells – cell-based, plate reader, dry powder samples, selectivity assay for PAX8 inhibitor project, dose response (AID 743048).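 Further: HEK293 cells carrying a WT1 promoter luciferase reporter driven by expressed Pax2; potency is for inhibition of Pax2 driven reporter signal.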 It is filed as functional.
A short description of assay [17]: COV362 cell viability loss – plate reader, dry powder, SA12, cytotoxicity control for PAX8 inhibitor project, dose response (AID 743144). It is filed as functional, cell-based.
Assay [18] in a line: toxicity toward immortalized ovarian surface epithelium – cell-based, plate reader, dry powder samples, cytotoxicity control for PAX8 inhibitor project, dose response (AID 743045). It is filed as functional.
Assay [19] in a line: A2780 cell killing – plate reader, dry powder samples, cytotoxicity control, dose response (AID 743046). It is filed as functional, cell-based.
The nature of assay [20]: OVCAR-3 cell viability loss – plate reader, dry powder samples, PAX8 inhibitor project, dose response (AID 743044). It is filed as functional, cell-based.
The nature of assay [21]: PAX5 cellular inhibition readout – cell-based, plate reader, dry powder samples, selectivity assay for PAX8 inhibitor project, dose response (AID 743047).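 Further: HEK293 cells carrying a Pax5 driven CD19 promoter luciferase reporter; potency of inhibitors that lower reporter luminescence.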 It is filed as functional.
The nature of assay [22]: IGROV1 cell killing – plate reader, dry powder samples, PAX8 inhibitor project, dose response (AID 743043). It is filed as functional, cell-based. The following applies: IGROV-1.
Assay [23] is described as follows: OVCAR4 cell viability loss – plate reader, dry powder, SA11, cytotoxicity control for PAX8 inhibitor project, dose response (AID 743150). The following applies: OVCAR-4. It is filed as functional, cell-based.
Assay [24] in a line: COV434 cell viability loss – plate reader, dry powder, SA7, cytotoxicity control for PAX8 inhibitor project, dose response (AID 743145). It is filed as functional, cell-based.
The nature of assay [25]: OV-90 cell viability loss – plate reader, dry powder, SA8, PAX8 inhibitor project, dose response (AID 743149). It is filed as functional, cell-based.
Assay [26] can be described thus: PAX8-dependent cell viability loss – plate reader, dry powder, dose response (AID 743049). It is filed as functional, cell-based.
The target of assay [27] is Lysine-specific demethylase 4C (Homo sapiens, UniProt Q9H3R0). Kind of assay: inhibition of JMJD2C H3K9me3 demethylation – biochemical, DELFIA europium, cherry-picked samples, dose response (AID 488835). It is filed as functional.
Chain of Lysine-specific demethylase 4C (Q9H3R0 whole entry): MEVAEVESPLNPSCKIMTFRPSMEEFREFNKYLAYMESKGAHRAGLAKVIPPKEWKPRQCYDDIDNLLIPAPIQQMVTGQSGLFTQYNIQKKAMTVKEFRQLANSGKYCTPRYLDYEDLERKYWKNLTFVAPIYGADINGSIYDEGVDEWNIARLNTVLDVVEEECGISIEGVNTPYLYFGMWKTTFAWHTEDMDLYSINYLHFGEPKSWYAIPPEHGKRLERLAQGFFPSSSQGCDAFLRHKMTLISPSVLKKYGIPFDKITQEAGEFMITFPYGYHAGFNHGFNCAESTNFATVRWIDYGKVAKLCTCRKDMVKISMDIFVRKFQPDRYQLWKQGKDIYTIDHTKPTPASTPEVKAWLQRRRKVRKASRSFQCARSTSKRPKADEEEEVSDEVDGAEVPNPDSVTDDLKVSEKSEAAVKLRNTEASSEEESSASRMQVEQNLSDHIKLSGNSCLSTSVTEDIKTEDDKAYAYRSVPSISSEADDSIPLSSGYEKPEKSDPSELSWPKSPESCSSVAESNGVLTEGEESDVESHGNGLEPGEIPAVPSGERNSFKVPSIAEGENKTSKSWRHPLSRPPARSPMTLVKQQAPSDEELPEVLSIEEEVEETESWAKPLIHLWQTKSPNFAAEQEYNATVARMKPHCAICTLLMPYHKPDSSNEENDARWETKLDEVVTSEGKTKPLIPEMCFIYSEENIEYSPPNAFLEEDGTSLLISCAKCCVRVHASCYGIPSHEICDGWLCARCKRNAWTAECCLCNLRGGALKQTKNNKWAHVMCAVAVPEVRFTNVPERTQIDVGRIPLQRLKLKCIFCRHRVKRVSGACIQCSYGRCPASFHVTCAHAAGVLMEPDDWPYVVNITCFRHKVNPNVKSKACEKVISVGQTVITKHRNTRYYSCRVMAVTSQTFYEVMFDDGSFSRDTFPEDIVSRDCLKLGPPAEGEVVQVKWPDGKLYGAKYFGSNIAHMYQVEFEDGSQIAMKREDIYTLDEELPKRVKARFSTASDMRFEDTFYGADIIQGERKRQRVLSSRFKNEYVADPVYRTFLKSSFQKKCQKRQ
In assay [28] the target is T2, Tyrosine-protein phosphatase non-receptor type 7 (Homo sapiens, UniProt P35236).
T2 sequence (P35236 whole entry): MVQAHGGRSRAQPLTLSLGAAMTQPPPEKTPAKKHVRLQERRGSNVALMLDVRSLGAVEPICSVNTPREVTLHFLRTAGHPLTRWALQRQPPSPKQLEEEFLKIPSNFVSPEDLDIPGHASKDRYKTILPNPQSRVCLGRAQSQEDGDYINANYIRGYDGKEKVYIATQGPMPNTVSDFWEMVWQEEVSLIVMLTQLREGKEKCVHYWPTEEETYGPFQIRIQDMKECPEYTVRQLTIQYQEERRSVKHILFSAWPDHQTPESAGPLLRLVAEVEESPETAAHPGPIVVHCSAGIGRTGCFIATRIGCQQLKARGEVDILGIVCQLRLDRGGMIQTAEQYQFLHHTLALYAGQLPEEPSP
It is filed as functional.

The target in assay [29] is T3, Tyrosine-protein phosphatase non-receptor type 22 (Homo sapiens, UniProt Q9Y2R2).
T3 sequence (Q9Y2R2 whole entry): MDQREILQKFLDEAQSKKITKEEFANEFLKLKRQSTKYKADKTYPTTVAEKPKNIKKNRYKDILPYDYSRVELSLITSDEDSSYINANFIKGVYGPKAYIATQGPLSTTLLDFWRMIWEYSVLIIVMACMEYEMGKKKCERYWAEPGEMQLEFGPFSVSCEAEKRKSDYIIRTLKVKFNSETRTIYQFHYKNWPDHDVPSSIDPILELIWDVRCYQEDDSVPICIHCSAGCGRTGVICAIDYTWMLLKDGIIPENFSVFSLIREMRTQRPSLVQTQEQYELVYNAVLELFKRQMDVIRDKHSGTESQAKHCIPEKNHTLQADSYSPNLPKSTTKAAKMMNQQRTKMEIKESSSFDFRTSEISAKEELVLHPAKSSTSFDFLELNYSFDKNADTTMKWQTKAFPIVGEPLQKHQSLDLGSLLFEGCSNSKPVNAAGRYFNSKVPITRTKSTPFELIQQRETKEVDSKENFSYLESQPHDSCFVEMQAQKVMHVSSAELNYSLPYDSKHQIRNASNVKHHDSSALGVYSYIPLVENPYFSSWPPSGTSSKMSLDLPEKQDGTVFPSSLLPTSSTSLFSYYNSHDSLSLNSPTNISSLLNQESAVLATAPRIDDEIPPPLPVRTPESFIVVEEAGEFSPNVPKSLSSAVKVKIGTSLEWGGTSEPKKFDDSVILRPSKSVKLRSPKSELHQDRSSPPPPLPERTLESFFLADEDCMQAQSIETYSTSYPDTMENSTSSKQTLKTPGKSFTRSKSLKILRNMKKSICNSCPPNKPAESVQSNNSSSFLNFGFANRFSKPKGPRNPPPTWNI
It is filed as functional.

The target of assay [30] is T3, Tyrosine-protein phosphatase non-receptor type 22. It is filed as functional. This is another data set of the same source.
Assay [31] in a line: microbe, parasite or virus in culture. It is filed as functional. Particulars: Mycobacterium tuberculosis.
Assay [32] deals with Glucose-6-phosphate 1-dehydrogenase (Homo sapiens, UniProt P11413). Description: inhibition of Homo sapiens G6PD, dose series – biochemical, fluorescence, selectivity assay for P. falciparum G6PD inhibitor project, dose response (AID 504792). It is filed as functional.
Chain of Glucose-6-phosphate 1-dehydrogenase (P11413 whole entry): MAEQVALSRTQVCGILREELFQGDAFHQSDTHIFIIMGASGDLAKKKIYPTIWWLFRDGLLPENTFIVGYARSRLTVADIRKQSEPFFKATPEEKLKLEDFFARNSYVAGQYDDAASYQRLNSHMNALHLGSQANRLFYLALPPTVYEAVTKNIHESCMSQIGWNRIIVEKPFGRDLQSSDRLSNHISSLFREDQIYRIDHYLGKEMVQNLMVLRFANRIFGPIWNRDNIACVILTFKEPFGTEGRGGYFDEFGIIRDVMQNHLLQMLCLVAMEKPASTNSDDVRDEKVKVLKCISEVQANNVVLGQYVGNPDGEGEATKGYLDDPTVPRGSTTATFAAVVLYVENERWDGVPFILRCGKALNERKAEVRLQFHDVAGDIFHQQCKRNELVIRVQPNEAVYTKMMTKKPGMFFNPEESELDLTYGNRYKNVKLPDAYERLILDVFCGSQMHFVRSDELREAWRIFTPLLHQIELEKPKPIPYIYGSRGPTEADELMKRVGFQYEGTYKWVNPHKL
The target in assay [33] is Heat shock protein HSP 90-alpha (Homo sapiens, UniProt P07900). It is filed as functional, organism-based.
Assay [34] has as its target Voltage-gated inwardly rectifying potassium channel KCNH2 (Homo sapiens, UniProt Q12809). Particulars: Potency.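 Further: confirmatory quantitative high-throughput screen measuring inhibition of hERG channel activity.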

Chain of Voltage-gated inwardly rectifying potassium channel KCNH2 (Q12809 whole entry): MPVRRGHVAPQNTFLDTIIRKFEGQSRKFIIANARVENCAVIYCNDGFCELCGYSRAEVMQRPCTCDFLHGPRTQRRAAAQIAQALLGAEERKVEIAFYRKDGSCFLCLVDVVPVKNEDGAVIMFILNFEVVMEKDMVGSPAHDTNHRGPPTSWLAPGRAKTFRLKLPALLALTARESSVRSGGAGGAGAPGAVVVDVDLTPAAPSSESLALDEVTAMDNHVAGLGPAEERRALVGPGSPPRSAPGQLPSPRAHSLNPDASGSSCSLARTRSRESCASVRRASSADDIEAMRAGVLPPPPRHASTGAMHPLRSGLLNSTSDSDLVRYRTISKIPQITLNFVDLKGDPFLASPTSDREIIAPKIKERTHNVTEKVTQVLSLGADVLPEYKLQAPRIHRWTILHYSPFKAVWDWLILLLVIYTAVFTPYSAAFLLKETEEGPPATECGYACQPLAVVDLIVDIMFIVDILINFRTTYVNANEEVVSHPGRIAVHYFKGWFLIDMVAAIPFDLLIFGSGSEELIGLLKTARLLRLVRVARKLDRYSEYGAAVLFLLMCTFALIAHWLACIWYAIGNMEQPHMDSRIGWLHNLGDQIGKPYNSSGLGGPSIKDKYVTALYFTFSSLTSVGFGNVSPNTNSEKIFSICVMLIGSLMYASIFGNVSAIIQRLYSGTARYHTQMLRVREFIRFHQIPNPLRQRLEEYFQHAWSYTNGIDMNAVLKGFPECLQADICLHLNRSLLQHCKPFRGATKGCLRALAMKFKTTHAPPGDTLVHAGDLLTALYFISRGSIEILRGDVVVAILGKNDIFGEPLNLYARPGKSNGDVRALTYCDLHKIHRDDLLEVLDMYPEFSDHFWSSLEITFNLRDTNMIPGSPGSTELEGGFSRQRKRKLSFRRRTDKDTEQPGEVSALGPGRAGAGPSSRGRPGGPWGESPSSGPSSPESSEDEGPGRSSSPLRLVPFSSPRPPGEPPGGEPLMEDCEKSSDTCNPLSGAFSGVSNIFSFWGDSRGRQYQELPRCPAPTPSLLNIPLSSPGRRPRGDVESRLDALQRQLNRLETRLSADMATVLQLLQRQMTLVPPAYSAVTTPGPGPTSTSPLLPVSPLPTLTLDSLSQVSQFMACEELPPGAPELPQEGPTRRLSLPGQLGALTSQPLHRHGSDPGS

One may read the EC50 as the concentration that produces a half-maximal response. As usually defined, the IC50 is the concentration needed to halve the response being measured. For orientation: AC50 means the concentration giving half of the maximal activity seen. On to `COc1cccc(N2CCN(C(=O)c3ccc(C[S+]([O-])c4ccccc4Cl)o3)CC2)c1` (stereo not given), for which the EC50 in assay [1] is < 0.1 µM (active); in assay [2], 0.202 µM (active); in the assay on BJ [3], 0.214 µM (active); in the assay “cells [4]” it was 0.345 µM (active); in [5], < 0.1 µM (active); in [6] it was < 0.1 µM (active). Also, the EC50 in the assay on BJ [7] was 37.7 µM (inconclusive); in [8] it was 0.225 µM (active); in assay [9], 0.354 µM (active). Also, the IC50 in assay [10] is 58 µM (inactive); in the assay “cells [14]”, > 67.6 µM (inactive); in [15], > 67.6 µM (inactive). Further, the half-maximal activity concentration (AC50) was 0.894 µM (active) in assay [11]; > 35 µM (active) with A-375 [12]; > 35 µM (active) with A-375 [13]; 0.921 µM (active) on Paired box protein Pax-8; 37.5 µM (active) in assay [16]; 2.03 µM (active) in assay [17]. Also, the AC50 was 0.537 µM (active) in assay [18]; 5 µM (active) in assay [19]; 0.478 µM (active) in assay [20]; 3.98 µM (active) in [21]; 72 µM (active) in assay [22]; 0.646 µM (active) in assay [23]. Also, the results for the concentration at half-maximal activity (AC50) in assay [24], in assay [25] and in assay [26] were 0.684 µM (active), 2.03 µM (active) and 22 µM (active), respectively.

Take `Cc1ccc(-c2csc(NC(=O)CSc3nc(C)cc(O)n3)n2)cc1`: in assay [27], the concentration at half-maximal activity (AC50) is 10.6 µM (active).

For `CCCC(=O)NCCc1cc2ccc(C)c(C)c2nc1O`, the IC50 in assay [28], in assay [29] and in assay [30] was > 79.4 µM (inactive) in each case.

In the case of `CCCCCCCCn1sccc1=O`, in [31], the CC50 was 11.3 µM (active). For the same compound, the IC50 in [32] was 59.3 µM (inactive). Also, the AC50 in assay [33] was 0.649 µM (active); in assay [34], 44.7 µM (inconclusive).
